Values of other authors in patent US11154616B2, “Methods of treating locally advanced or metastatic breast cancers using PD-1 axis binding antagonists and taxanes” (Genentech, Inc., priority 2015, dated 2021).

System: mTNBC
Conditions: monotherapy in mTNBC

Substance: MPDL3280A: humanized monoclonal anti-PD-L1 antibody that inhibits the binding of PD-L1 to PD-1
- clinical response as a monotherapy: durable responses
